Measurements taken from publication PMC6544120, “Stimuli-responsive membrane activity of cyclic-peptide–polymer conjugates” (Chemical Science, 2019).

Test: Calcein dye leakage assay
Type: biochemical
Conditions: pure DTT 30 mM without CPNT
Description: This was tested by studying the interaction of our CPNT with synthetic liposomes. A mixture of phosphatidylethanolamine and phosphatidylglycerol was used to simulate the cytosolic membrane of E. coli.[35] Vesicles were loaded with self-quenching concentrations of a fluorescent dye (calcein). This allows to detect disruption of the bilayer, as dye release from the liposomes and the resulting dilution leads to an increase in fluorescence (Scheme S4 ^†).
The fit (Figure S25) was performed with R, Rg, N agg, l and N as adjustable parameter.
Table S2. Fitting parameters for 24 using a form factor of a micelle with a spherical core […]
Rg, corona b 16.6 Å parameters
Vcore (single unit) c 300 Å3 […]
Background subtracted 5 × 10 -2 cm-1 a The radius of the core was calculated from the volume of the whole core given by the volume of the core of a single unit multiplied with the number of aggregation (N agg); b Radius of gyration (R g) of a single chain in the corona; c The Volume of a single cyclic peptide in the core or polymer corona (PEtOx) was estimated from the Mn, divided by the Avogadro constant and assuming a density of 1 g/cm 3, d The scattering lengths density (SLD) of the materials was calculated using the calculator given in SASfit; […]
Formation of vesicles. […]

Structure (SMILES): O[C@@H](CS)[C@@H](O)CS (racemic) [DTT, 1,4-dithiothreitol]
- Effect of DTT alone on fluorescence intensity (calcein release): no effect on the fluorescence intensity
